According to EP2970215B1, “PYRROLIDINE DERIVATIVES, PHARMACEUTICAL COMPOSITIONS CONTAINING THEM, AND THEIR USE IN THERAPY” (AbbVie Deutschland GmbH & Co. KG, priority 2013, dated 2014):

molecular target: T1, human GlyT1c transporter (Homo sapiens, UniProt P48067); assay: Radioligand binding assay using recombinant CHO cell membranes expressing human GlyT1; conditions: radioligand binding to human GlyT1c transporter-expressing membranes
T1 construct: expressed in transfected cells; host or cells: CHO cells (recombinant; line hGlyT1c_5_CHO is named for the uptake assay)
T1 sequence (P48067 1-706): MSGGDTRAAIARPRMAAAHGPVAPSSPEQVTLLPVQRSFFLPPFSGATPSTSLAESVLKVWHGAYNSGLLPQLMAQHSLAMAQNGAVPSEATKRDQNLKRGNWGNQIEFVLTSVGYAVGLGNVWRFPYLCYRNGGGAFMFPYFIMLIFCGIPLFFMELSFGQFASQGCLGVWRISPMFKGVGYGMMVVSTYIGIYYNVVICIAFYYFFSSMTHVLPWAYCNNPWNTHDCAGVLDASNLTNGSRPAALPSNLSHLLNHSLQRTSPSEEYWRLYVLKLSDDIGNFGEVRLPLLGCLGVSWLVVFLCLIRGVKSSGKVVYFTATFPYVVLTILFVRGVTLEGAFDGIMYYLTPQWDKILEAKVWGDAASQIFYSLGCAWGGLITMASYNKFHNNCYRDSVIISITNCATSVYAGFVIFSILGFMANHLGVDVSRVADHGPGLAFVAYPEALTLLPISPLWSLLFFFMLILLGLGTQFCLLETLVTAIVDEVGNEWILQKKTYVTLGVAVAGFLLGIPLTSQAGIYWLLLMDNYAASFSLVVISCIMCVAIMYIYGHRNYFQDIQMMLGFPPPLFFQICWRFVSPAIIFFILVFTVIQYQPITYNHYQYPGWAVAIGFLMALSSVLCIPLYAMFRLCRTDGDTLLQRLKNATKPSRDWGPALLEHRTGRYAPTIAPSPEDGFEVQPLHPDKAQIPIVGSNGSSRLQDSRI
Excerpt: 2. Radioligand binding assays using recombinant CHO cell membranes expressing human GlyT1: […]

Compound	Ki [nM]
Cn1cnc(S(=O)(=O)N2C[C@@H](Nc3ccc(Cl)c(Cl)c3)[C@H](c3cccc(F)c3)C2)c1 (relative stereo) [Example 192, trans-N-(3,4-dichlorophenyl)-4-(3-fluorophenyl)-1-[(1-methyl-1H-imidazol-4-yl)sulfonyl]pyrrolidin-3-amine]	≤ 1000
Cn1cnc(S(=O)(=O)N2C[C@@H](Nc3ccc(Cl)c(F)c3)[C@H](c3cccc(F)c3)C2)c1 (relative stereo) [Example 193, trans-N-(4-chloro-3-fluorophenyl)-4-(3-fluorophenyl)-1-[(1-methyl-1H-imidazol-4-yl)sulfonyl]pyrrolidin-3-amine]	≤ 10000
Cn1cnc(S(=O)(=O)N2C[C@@H](Nc3ccc(F)c(Cl)c3)[C@H](c3cccc(F)c3)C2)c1 (relative stereo) [Example 194, trans-N-(3-chloro-4-fluorophenyl)-4-(3-fluorophenyl)-1-[(1-methyl-1H-imidazol-4-yl)sulfonyl]pyrrolidin-3-amine]	≤ 100
Cn1cnc(S(=O)(=O)N2C[C@@H](Nc3cccc(C(F)(F)F)n3)[C@H](c3cccc(F)c3)C2)c1 (relative stereo) [Example 195, N-{trans-4-(3-fluorophenyl)-1-[(1-methyl-1H-imidazol-4-yl)sulfonyl]pyrrolidin-3-yl} -6-(trifluoromethyl)pyridin-2-amine]	≤ 10000
Cn1cnc(S(=O)(=O)N2C[C@@H](Nc3cncc(C(F)(F)F)c3)[C@H](c3cccc(F)c3)C2)c1 (relative stereo) [Example 196, N-{trans-4-(3-fluorophenyl)-1-[(1-methyl-1H-imidazol-4-yl)sulfonyl]pyrrolidin-3-yl}-5-(trifluoromethyl)pyridin-3-amine]	≤ 10000
Cn1cnc(S(=O)(=O)N2C[C@@H](Nc3ccc(F)c(F)c3)[C@H](c3cccc(F)c3)C2)c1 (relative stereo) [Example 197, trans-N-(3,4-difluorophenyl)-4-(3-fluorophenyl)-1-[(1-methyl-1H-imidazol-4-yl)sulfonyl]pyrrolidin-3-amine]	≤ 1000
Cn1cnc(S(=O)(=O)N2C[C@@H](Nc3ccccc3)[C@H](c3ccccc3F)C2)c1 (relative stereo) [Example 198, trans-4-(2-fluorophenyl)-1-[(1-methyl-1H-imidazol-4-yl)sulfonyl]-N-phenylpyrrolidin-3-amine]	≤ 1000
Cn1cnc(S(=O)(=O)N2C[C@@H](Nc3cccc(F)c3)[C@H](c3ccccc3F)C2)c1 (relative stereo) [Example 199, trans-4-(2-fluorophenyl)-N-(3-fluorophenyl)-1-[(1-methyl-1H-imidazol-4-yl)sulfonyl]pyrrolidin-3-amine]	≤ 1000
Cn1cnc(S(=O)(=O)N2C[C@@H](Nc3ccc(F)cc3)[C@H](c3ccccc3F)C2)c1 (relative stereo) [Example 200, trans-4-(2-fluorophenyl)-N-(4-fluorophenyl)-1-[(1-methyl-1H-imidazol-4-yl)sulfonyl]pyrrolidin-3-amine]	≤ 1000
Cn1cnc(S(=O)(=O)N2C[C@@H](Nc3ccc(Cl)cc3)[C@H](c3ccccc3F)C2)c1 (relative stereo) [Example 202, trans-N-(4-chlorophenyl)-4-(2-fluorophenyl)-1-[(1-methyl-1H-imidazol-4-yl)sulfonyl]pyrrolidin-3-amine]	≤ 1000
Cn1cnc(S(=O)(=O)N2C[C@@H](Nc3cccc(C(F)(F)F)n3)[C@H](c3ccccc3F)C2)c1 (relative stereo) [Example 203, N-{trans-4-(2-fluorophenyl)-1-[(1-methyl-1H-imidazol-4-yl)sulfonyl]pyrrolidin-3-yl}-6-(trifluoromethyl)pyridin-2-amine]	≤ 10000
Cn1cnc(S(=O)(=O)N2C[C@@H](Nc3ccc(F)c(Cl)c3)[C@H](c3ccccc3)C2)c1 (relative stereo) [Example 215, trans-N-(3-chloro-4-fluorophenyl)-1-[(1-methyl-1H-imidazol-4-yl)sulfonyl]-4-phenylpyrrolidin-3-amine]	≤ 100

The next lines start with the values.

Ki [nM]	Compound
≤ 100	Cn1cnc(S(=O)(=O)N2C[C@@H](Nc3ccnc(C(F)(F)F)c3)[C@H](c3ccccc3F)C2)c1 (relative stereo) [Example 204, N-{trans-4-(2-fluorophenyl)-1-[(1-methyl-1H-imidazol-4-yl)sulfonyl]pyrrolidin-3-yl}-2-(trifluoromethyl)pyridin-4-amine]
≤ 10000	Cn1cnc(S(=O)(=O)N2C[C@@H](CO)[C@H](c3ccc(F)cc3)C2)c1 (relative stereo) [Example 206, {Trans-4-(4-fluorophenyl)-1-[(1-methyl-1H-imidazol-4-yl)sulfonyl]pyrrolidin-3-yl}methanol]
≤ 10000	Cn1cnc(S(=O)(=O)N2C[C@@H](Nc3ccccn3)[C@H](c3ccccc3)C2)c1 (relative stereo) [Example 207, N-{trans-1-[(1-methyl-1H-imidazol-4-yl)sulfonyl]-4-phenylpyrrolidin-3-yl}pyridin-2-amine]
≤ 10000	Cn1cnc(S(=O)(=O)N2C[C@@H](Nc3cccnc3)[C@H](c3ccccc3)C2)c1 (relative stereo) [Example 208, N-{trans-1-[(1-methyl-1H-imidazol-4-yl)sulfonyl]-4-phenylpyrrolidin-3-yl}pyridin-3-amine]
≤ 10000	Cn1cnc(S(=O)(=O)N2C[C@@H](Nc3ccncc3)[C@H](c3ccccc3)C2)c1 (relative stereo) [Example 209, N-{trans-1-[(1-methyl-1H-imidazol-4-yl)sulfonyl]-4-phenylpyrrolidin-3-yl}pyridin-4-amine]
≤ 10000	Cn1cnc(S(=O)(=O)N2C[C@@H](Nc3cccc(C(F)(F)F)n3)[C@H](c3ccccc3)C2)c1 (relative stereo) [Example 210, N-{trans-1-[(1-methyl-1H-imidazol-4-yl)sulfonyl]-4-phenylpyrrolidin-3-yl}-6-(trifluoromethyl)pyridin-2-amine]
≤ 1000	Cn1cnc(S(=O)(=O)N2C[C@@H](Nc3ccnc(C(F)(F)F)c3)[C@H](c3ccccc3)C2)c1 (relative stereo) [Example 211, N-{trans-1-[(1-methyl-1H-imidazol-4-yl)sulfonyl]-4-phenylpyrrolidin-3-yl}-2-(trifluoromethyl)pyridin-4-amine]
≤ 100	Cn1cnc(S(=O)(=O)N2C[C@@H](Nc3cc(C(F)(F)F)ccn3)[C@H](c3ccccc3)C2)c1 (relative stereo) [Example 212, N-{trans-1-[(1-methyl-1H-imidazol-4-yl)sulfonyl]-4-phenylpyrrolidin-3-yl}-4-(trifluoromethyl)pyridin-2-amine]
≤ 1000	Cn1cnc(S(=O)(=O)N2C[C@@H](Nc3cncc(C(F)(F)F)c3)[C@H](c3ccccc3)C2)c1 (relative stereo) [Example 213, N-{trans-1-[(1-methyl-1H-imidazol-4-yl)sulfonyl]-4-phenylpyrrolidin-3-yl} -5 - (trifluoromethyl)pyridin-3-amine]
≤ 1000	Cn1cnc(S(=O)(=O)N2C[C@@H](Nc3ccc(F)c(F)c3)[C@H](c3ccccc3)C2)c1 (relative stereo) [Example 216, trans-N-(3,4-difluorophenyl)-1-[(1-methyl-1H-imidazol-4-yl)sulfonyl]-4-phenylpyrrolidin-3-amine]
